# Assay results taken from paper PMC7822874, “Chemoprotective antimalarials identified through quantitative high-throughput screening of Plasmodium blood and liver stage parasites” (Scientific Reports, 2021).
# Like-named read-outs stand apart in the source and are kept apart here.
# Columns and labels:
# in vitro [1] = conditions: human
# in vitro [2] = conditions: human, n = 1
# [3] = tested on: P. berghei-ANKA-GFP-LucCON liver stage parasites in HepG2-A16-CD81EGFP cells; assay: P. berghei liver stage Pb-Luc assay, Method 1 (UCSD, 1536-well); format: cell-based, Plasmodium berghei; conditions: for Max Resp (signal direction of the dose response) / AC50 / Log AC50 (M): Method 1; for Max Resp (signal direction of the dose response): Decrease = decreasing P. berghei viability with dose, Increase = increasing signal, Inactive = no dose response; for activity at 1 µM / activity at 3 µM: 48 h, average of 2 wells on a 1536 well plate; for activity at 1 µM: 1 uM (compounds provided at 10 mM); for activity at 3 µM: 3 uM (compounds provided at 10 mM)
# [4] = tested on: Plasmodium falciparum Dd2 asexual blood stage parasites; assay: microbe, parasite or virus in culture; parameters: species or system Plasmodium falciparum Dd2 in human erythrocytes; single determination (one 11-point concentration-response curve); conditions: Plasmodium falciparum, DD2, Erythrocyte, 72 h; read-out: AC50
# [5] = Hill fit, 50% of maximum activity response, read-out: AC50
# [6] = log10 of molar AC50 from Hill fit
# [7] = Plasmodium berghei, Hill fit, 50% of maximum activity response, read-out: AC50
# [8] = Plasmodium berghei, log10 of molar AC50 from Hill fit, read-out: Log AC50 (converted)
# [9] = HepG2-A16-CD81EGFP cells, uninfected
# [10] = Plasmodium berghei, column 11, read-out: Pb-Luc (P. berghei liver stage), % of control, lower concentration, first repeat
# [11] = Plasmodium berghei, column 12, read-out: Pb-Luc (P. berghei liver stage), % of control, lower concentration, second repeat
# [12] = Plasmodium berghei, column 8, read-out: Pb-Luc (P. berghei liver stage), % of control, higher concentration, first repeat
# [13] = Plasmodium berghei, column 9, read-out: Pb-Luc (P. berghei liver stage), % of control, higher concentration, second repeat
Compound,Max Resp (signal direction of the dose response) [3],"AC50 [3, 5] [nM]","Log AC50 (M) [3, 6] [M]","AC50 [3, 7] [nM]","AC50 [3, 8] [nM]",AC50 [4] [nM],viability at 66 h (in vitro [1]; [9]) [%],CC50 at 48 h (in vitro [2]; HepG2 cells) [µM],"viability at 48 h, 1 µM (in vitro [1]; [9]) [%]","viability at 48 h, 3 µM (in vitro [1]; [9]) [%]",also measured
c1ccc(-c2cccc(-c3ccccn3)n2)nc1 [MLS000048666-01],,,,,,,,,,,viability at 66 h (in vitro [1]): 17.7%; CC50 at 48 h (in vitro [2]; hepg2): 15.3 µM
N=c1ccn(Cc2ccc(Cl)c(Cl)c2)cc1 [MLS000080112-01],Decrease,1580,-5.800,1410,1410,6680,99.6,30.6,,,
COc1cnc(-c2ccccn2)nc1Sc1c(Cl)cccc1Cl [MLS000325774-01],,,,,,2990,,24.3,106,99,
Oc1ccc(-c2nnc(S)n2-c2ccc3c(c2)OCCO3)c(O)c1 [MLS000332001-01],,,,,,2660,,17.2,98,95,
CCOC(=O)c1cnc(-n2nc(C)cc2C)nc1NC1CCCC1 [MLS000333072-01],Inactive,,,,,8410,107,17.2,,,
CCNC(S)=N/N=C/c1sc(N2CCCCC2)nc1-c1cccs1 [MLS000335256-01],,,,,,668,103,15.3,,,
O=C1C(Nc2ccccc2)=C/C(=N\S(=O)(=O)c2cccs2)c2ccccc21 [MLS000374486-01],,,,,,335,,12.2,101,76,
COc1ccccc1NS(=O)(=O)c1cc(NC(=O)c2ccc(Cl)nc2)ccc1Cl [MLS000417369-01],Decrease,2510,-5.600,2000,2000,,96.5,19.3,,,
N=c1ccn(Cc2ccc(Cl)cc2Cl)cc1 [MLS000554049-01],Inactive,,,,,8410,,19.3,89.2,,viability at 48 h (in vitro [1]; [9]): 89.2%
CC(=O)N(C)C1=C(N2CCOCC2)C(=O)c2ccccc2C1=O [MLS000570886-01],Decrease,1580,-5.800,1260,1260,841,92.5,10.9,,,
c1ccc(CCNc2ccnc3cc4ccccc4cc23)cc1 [MLS000717866-01],Decrease,501,-6.300,398,398,1680,93.8,10.9,,,
O=C(Nc1ccc([N+](=O)[O-])cc1)Nc1nc(-c2ccc(Cl)s2)cs1 [MLS000722351-01],Decrease,224,-6.650,178,178,2990,90,13.7,,,
CCOC(=O)C1CCN(C(=O)c2c(C)oc3c2C(=O)c2ccccc2C3=O)CC1 [MLS000724686-01],,,,,,531,103,15.3,,,
Cc1ccc(Cl)cc1NC(=O)c1cc2ccccc2cc1O [MLS000738149-01],,,,,,1500,,,,,"activity at 1 µM [3, 10]: 92%; activity at 1 µM [3, 11]: 94%; activity at 3 µM [3, 12]: 38%; activity at 3 µM [3, 13]: 81%; viability at 48 h, 1 µM (in vitro [1]): 104%; viability at 48 h, 3 µM (in vitro [1]): 69%; CC50 at 48 h (in vitro [2]; hepg2): 21.7 µM"
COc1cc(NC2CCCCC2O)c2nc(-c3ccc(Cl)cc3)ccc2c1 (stereo not shown) [MLS000766166-01],,,,,,5310,,13.7,111,101,
CC(C)Nc1ccc(Nc2ccnc3cc4ccccc4cc23)cc1 [MLS000766754-01],,,,,,,,27.3,114,78,"activity at 1 µM [3, 10]: 101%; activity at 1 µM [3, 11]: 80%; activity at 3 µM [3, 12]: 10%; activity at 3 µM [3, 13]: 14%"
c1ccc(CCNc2nc(-c3ccccn3)nc3ccccc23)cc1 [MLS000769840-01],Inactive,,,,,4730,,10.9,96.1,,viability at 48 h (in vitro [1]; [9]): 96.1%
O=C1Nc2ccccc2C1=NN=C(S)N1CCOCC1 [MLS000778251-01],Decrease,316,-6.500,251,251,2110,86.1,15.3,,,
Cc1ccc(NCC(=O)Nc2cccc(F)c2)cc1S(=O)(=O)N1CCCCCC1 [MLS001128515-01],,,,,,,,27.3,93,83,
